Earlier results as cited in patent publication US20170136076A1, “THERAPEUTIC COMPOSITIONS COMPRISING HERBAL EXTRACTS AND ESSENTIAL OILS FOR SMOKING AND VAPORIZATION” (NISARGA BIOTECH PRIVATE LIMITED, priority 2015, published 2017).

Experiments:
[1] = after 90 minutes; condenses on the surface of the vaporizer or the balloon
[2] = pure THC in the vaporizer

Which “loss of THC from stored vapor” value [1] does the source give for `CCCCCc1cc(O)c2c(c1)OC(C)(C)[C@@H]1CCC(C)=C[C@@H]21` [THC, tetrahydrocannabinol] here?
Its value is “exceed 50%”.

And the “degradation products (delta-8-THC, cannabinol, unknown compounds) detected by HPLC” value [2]?
Its value is “no degradation products”.
